Data set [1] is described as follows: Inhibition of Haemophilus influenzae phenylalanyl-tRNA synthetase.
The target in data set [2] is T1, CYP1A2 (Homo sapiens, UniProt P05177).
T1 sequence (P05177 whole entry): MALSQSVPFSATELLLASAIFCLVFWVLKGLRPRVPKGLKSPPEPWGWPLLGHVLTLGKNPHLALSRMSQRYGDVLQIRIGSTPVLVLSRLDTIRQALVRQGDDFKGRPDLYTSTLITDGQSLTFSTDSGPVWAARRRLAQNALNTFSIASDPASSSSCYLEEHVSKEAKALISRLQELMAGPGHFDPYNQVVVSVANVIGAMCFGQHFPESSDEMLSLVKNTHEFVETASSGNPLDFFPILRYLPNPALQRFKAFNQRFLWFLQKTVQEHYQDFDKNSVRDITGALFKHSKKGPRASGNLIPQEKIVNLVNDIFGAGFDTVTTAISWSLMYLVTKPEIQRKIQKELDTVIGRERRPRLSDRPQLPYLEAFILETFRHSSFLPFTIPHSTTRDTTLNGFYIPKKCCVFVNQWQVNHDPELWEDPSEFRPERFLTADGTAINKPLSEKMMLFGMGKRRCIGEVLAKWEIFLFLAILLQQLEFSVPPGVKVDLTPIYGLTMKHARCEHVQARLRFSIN
Description: Inhibition of human CYP1A2 at 3 uM. Type of data set: ADME. The settings on record: read-out: Activity.

A short description of data set [3]: Membrane permeability by PAMPA. In kind it is ADME.
The nature of data set [4]: Inhibition of Streptococcus pneumoniae phenylalanyl-tRNA synthetase.
Data set [5] can be described thus: Apparent intrinsic clearance in human liver microsomes. Type of data set: ADME, Microsome.
Data set [6] has as its target hERG (KCNH2) (Homo sapiens, UniProt Q12809). Description: Displacement of [3H]dofetilide from human ERG channel at 10 nM. The settings on record: probe [3H]dofetilide, read-out: Activity. A general note: In a radioligand displacement assay an active substance lowers the binding of a labelled ligand.

Chain of hERG (KCNH2) (Q12809 whole entry): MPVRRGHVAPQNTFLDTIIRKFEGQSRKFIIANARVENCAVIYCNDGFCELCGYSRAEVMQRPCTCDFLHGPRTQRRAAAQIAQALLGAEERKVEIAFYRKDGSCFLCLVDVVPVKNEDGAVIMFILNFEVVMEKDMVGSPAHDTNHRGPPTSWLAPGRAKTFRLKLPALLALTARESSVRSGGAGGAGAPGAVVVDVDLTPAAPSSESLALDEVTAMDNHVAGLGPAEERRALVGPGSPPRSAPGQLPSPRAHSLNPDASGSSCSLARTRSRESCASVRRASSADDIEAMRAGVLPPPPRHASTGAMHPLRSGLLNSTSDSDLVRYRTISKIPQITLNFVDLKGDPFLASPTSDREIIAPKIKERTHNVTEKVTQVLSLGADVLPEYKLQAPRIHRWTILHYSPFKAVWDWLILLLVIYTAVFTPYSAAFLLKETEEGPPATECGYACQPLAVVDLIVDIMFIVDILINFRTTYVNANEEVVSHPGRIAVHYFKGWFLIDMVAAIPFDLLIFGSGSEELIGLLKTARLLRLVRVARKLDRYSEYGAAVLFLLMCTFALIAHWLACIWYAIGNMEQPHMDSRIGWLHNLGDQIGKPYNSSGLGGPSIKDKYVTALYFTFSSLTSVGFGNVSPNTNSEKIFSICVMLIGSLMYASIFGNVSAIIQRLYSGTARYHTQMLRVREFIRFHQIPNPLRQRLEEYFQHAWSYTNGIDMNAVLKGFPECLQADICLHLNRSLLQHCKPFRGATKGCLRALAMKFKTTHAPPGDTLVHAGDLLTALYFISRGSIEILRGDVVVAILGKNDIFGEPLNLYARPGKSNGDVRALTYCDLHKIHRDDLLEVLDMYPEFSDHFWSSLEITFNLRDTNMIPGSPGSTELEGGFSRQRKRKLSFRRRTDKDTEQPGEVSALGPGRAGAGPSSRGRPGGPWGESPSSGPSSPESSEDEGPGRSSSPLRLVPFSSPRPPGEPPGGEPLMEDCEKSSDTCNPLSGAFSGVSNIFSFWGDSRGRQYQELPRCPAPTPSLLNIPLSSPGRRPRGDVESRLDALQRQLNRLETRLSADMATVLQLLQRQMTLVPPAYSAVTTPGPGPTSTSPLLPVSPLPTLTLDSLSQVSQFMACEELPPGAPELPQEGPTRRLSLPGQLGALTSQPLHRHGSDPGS

Turning to `Clc1cccc(COc2cnc(-c3nnco3)cc2Cl)c1`, the IC50 in data set [1] came out at 12 µM; in data set [4], 97 µM. Moreover, the inhibition at 3 µM in data set [2] came out at 38%. For the same molecule, in data set [3] (read-out: Activity), the Papp was 5.31 ×10⁻⁶ cm/s. Also, the intrinsic metabolic clearance (CLint scaled) in data set [5] was less than 10.1 mL/min/kg.
For `CC(=O)NC1CCN(Cc2ccc(OCc3ccc(Cl)cc3)c(Cl)c2)C1` (stereo not given), the inhibition at 0.01 µM in data set [6] is 89%. For the same molecule, the IC50 in data set [1] worked out at 0.24 µM; in data set [4], 2.2 µM. In addition, the Activity result in data set [3] is “Not Active”. Also, the CLint scaled in data set [5] was 9.63 mL/min/kg.

What is called IC50 is the concentration that gives 50% inhibition. A higher IC50 goes with weaker potency. A word on the CLint scaled: it is the rate of metabolic loss divided by the concentration.

Source of the values: ChEMBL document CHEMBL1143329, “Discovery and SAR of benzyl phenyl ethers as inhibitors of bacterial phenylalanyl-tRNA synthetase” (Bioorg Med Chem Lett, 2009).
